Measured values published in ChEMBL document CHEMBL3868599, “Strategy for designing selective α-l-rhamnosidase inhibitors: Synthesis and biological evaluation of l-DMDP cyclic isothioureas” (Bioorg Med Chem, 2017).

Tests used:
[1] = Inhibition of Penicillium decumbens alpha-L-rhamnosidase assessed as reduction in hydrolysis of p-nitrophenyl-a-L-rhamnopyranoside
Prunus dulcis [2] = experiment: Inhibition of almond beta-glucosidase at 1000 uM using p-nitrophenyl-glycoside as substrate by spectrophotometric method
Helix pomatia = experiment: Inhibition of Helix pomatia beta-mannosidase at 1000 uM using p-nitrophenyl-glycoside as substrate by spectrophotometric method
[3] = biological target: T1, Beta-galactosidase (Bos taurus) (UniProt Q58D55); experiment: Inhibition of bovine liver beta-galactosidase at 1000 uM using p-nitrophenyl-glycoside as substrate by spectrophotometric method
T1 sequence (whole entry): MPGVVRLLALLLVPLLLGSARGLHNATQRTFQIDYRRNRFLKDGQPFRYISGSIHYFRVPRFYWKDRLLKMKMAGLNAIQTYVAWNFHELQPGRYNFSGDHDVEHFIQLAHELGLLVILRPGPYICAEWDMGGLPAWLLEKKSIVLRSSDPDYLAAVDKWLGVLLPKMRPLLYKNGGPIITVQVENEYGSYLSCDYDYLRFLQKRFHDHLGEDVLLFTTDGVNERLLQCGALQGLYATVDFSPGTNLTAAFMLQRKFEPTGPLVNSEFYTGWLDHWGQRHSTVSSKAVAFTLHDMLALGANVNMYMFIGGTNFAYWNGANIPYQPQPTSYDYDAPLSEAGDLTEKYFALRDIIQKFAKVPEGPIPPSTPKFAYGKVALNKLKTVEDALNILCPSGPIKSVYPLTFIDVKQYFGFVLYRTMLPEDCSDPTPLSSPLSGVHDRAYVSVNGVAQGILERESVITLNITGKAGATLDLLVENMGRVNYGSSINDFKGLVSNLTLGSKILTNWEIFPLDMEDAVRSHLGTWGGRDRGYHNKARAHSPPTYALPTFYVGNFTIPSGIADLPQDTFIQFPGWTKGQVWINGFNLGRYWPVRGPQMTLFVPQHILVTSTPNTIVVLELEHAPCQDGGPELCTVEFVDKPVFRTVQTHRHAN

Oryza sativa [4] = experiment: Inhibition of rice alpha-glucosidase at 1000 uM using p-nitrophenyl-glycoside as substrate by spectrophotometric method
Rattus norvegicus [5] = species on record: Rattus norvegicus; experiment: Inhibition of rat intestinal maltase assessed as D-glucose level at 1000 uM using maltose as substrate measured after 10 to 30 mins
[6] = biological target: T2, Tissue alpha-L-fucosidase (Bos taurus) (UniProt Q2KIM0); experiment: Inhibition of bovine kidney alpha-L-fucosidase at 1000 uM using p-nitrophenyl-glycoside as substrate by spectrophotometric method
T2 sequence (whole entry): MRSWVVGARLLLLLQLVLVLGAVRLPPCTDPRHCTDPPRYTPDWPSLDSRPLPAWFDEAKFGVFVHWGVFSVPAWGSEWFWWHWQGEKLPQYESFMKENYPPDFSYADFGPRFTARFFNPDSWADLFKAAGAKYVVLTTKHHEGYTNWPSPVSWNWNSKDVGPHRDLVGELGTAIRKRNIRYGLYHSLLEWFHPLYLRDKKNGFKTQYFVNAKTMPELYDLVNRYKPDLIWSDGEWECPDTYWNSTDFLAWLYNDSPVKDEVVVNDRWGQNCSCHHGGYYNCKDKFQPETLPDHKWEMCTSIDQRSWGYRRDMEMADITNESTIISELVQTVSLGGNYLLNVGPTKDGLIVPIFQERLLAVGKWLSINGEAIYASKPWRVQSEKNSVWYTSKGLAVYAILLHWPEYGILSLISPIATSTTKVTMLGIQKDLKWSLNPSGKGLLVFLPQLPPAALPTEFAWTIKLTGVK

[7] = Inhibition of human lysosomal beta-glucosidase using 4-methylumbelliferyl-beta-D-glucopyranoside as substrate preincubated for 45 mins followed by substrate addition measured after 30 mins by fluorescence spectrophotometric method
[8] = biological target: T3, Alpha-mannosidase (Canavalia ensiformis) (UniProt C0HJB3); experiment: Inhibition of Jack bean alpha-mannosidase at 1000 uM preincubated for 45 mins followed by addition of p-nitrophenyl-glycoside as substrate measured after 30 mins by fluorescence spectrophometry
T3 sequence (whole entry): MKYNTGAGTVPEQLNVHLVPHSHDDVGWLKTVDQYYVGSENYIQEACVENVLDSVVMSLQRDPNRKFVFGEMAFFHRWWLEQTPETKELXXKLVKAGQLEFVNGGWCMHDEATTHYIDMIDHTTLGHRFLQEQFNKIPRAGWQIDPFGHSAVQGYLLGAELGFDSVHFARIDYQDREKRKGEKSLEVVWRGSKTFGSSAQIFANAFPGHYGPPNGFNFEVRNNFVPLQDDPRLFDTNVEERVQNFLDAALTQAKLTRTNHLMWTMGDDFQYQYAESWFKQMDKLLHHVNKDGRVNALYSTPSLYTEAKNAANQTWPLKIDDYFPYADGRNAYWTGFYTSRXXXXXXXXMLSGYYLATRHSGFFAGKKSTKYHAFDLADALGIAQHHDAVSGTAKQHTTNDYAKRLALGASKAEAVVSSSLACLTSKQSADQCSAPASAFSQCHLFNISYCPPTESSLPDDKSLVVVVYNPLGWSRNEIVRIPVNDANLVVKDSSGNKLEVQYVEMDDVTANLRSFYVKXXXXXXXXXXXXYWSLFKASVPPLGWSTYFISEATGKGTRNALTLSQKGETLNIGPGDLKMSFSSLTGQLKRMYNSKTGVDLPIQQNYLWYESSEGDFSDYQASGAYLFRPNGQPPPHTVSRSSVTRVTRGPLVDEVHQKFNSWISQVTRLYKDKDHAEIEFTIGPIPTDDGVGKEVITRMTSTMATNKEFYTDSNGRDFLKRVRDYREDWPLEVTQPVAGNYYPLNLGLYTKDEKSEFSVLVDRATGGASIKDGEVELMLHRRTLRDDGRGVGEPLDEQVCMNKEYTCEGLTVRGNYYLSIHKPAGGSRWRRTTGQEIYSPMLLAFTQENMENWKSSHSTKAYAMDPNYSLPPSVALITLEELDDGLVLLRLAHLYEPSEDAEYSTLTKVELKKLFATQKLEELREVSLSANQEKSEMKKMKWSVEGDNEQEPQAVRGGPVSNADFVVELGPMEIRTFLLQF

Penicillium decumbens = experiment: Inhibition of Penicillium decumbens alpha-L-rhamnosidase at 1000 uM using p-nitrophenyl-glycoside as substrate by spectrophotometric method
Aspergillus niger [9] = experiment: Inhibition of Aspergillus niger amyloglucosidase assessed as D-glucose level at 1000 uM using maltose as substrate measured after 10 to 30 mins
Escherichia coli [10] = experiment: Inhibition of Escherichia coli beta-glucuronidase at 1000 uM using p-nitrophenyl-glycoside as substrate by spectrophotometric method
Escherichia coli [11] = experiment: Inhibition of Escherichia coli beta-galactosidase at 1000 uM using p-nitrophenyl-glycoside as substrate by spectrophotometric method
[12] = biological target: T4, Uncharacterized protein (Sus scrofa) (UniProt I3LIR5); experiment: Inhibition of porcine kidney trehalase assessed as D-glucose level at 1000 uM using maltose as substrate measured after 10 to 30 mins
T4 sequence (whole entry): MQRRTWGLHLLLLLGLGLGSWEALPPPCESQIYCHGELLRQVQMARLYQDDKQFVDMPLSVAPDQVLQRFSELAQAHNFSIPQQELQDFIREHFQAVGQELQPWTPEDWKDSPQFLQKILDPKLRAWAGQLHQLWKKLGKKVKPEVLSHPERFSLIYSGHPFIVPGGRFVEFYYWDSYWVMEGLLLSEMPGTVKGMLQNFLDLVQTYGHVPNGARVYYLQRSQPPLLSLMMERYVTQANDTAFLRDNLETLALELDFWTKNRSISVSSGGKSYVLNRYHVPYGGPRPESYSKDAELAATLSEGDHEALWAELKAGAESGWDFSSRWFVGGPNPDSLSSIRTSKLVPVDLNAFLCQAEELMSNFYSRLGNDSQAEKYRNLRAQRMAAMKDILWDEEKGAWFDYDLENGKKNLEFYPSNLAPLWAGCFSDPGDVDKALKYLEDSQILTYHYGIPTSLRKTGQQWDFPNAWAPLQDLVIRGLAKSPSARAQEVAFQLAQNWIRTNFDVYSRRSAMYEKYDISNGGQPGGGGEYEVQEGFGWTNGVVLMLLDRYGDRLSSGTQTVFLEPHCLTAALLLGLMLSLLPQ

Saccharomyces cerevisiae = experiment: Inhibition of yeast alpha-glucosidase at 1000 uM using p-nitrophenyl-glycoside as substrate by spectrophotometric method
Coffea = experiment: Inhibition of coffee bean alpha-galactosidase at 1000 uM using p-nitrophenyl-glycoside as substrate by spectrophotometric method
[13] = Inhibition of bovine liver beta-glucosidase using p-nitrophenyl-glycoside as substrate by spectrophotometric method; design: species or system Bos taurus
Homo sapiens [14] = species on record: Homo sapiens; experiment: Inhibition of human lysosomal beta-glucosidase at 1000 uM using 4-methylumbelliferyl-beta-D-glucopyranoside as substrate preincubated for 45 mins followed by substrate addition measured after 30 mins by fluorescence spectrophotometric method
Bos taurus [15] = species on record: Bos taurus; experiment: Inhibition of bovine liver beta-glucosidase at 1000 uM using p-nitrophenyl-glycoside as substrate by spectrophotometric method
Beta-galactosidase = biological target: T5, Beta-galactosidase (Bos taurus, UniProt Q58D55); experiment: Inhibition of bovine liver beta-galactosidase using p-nitrophenyl-glycoside as substrate by spectrophotometric method
T5 sequence (Q58D55 whole entry): T1 sequence (whole entry)

[16] = Inhibition of rice alpha-glucosidase using p-nitrophenyl-glycoside as substrate by spectrophotometric method; design: species or system Oryza sativa
[17] = Inhibition of Penicillium decumbens alpha-L-rhamnosidase using p-nitrophenyl-glycoside as substrate by spectrophotometric method
Homo sapiens [18] = species on record: Homo sapiens; experiment: Inhibition of human lysosomal beta-glucosidase at 100 uM using 4-methylumbelliferyl-beta-D-glucopyranoside as substrate preincubated for 45 mins followed by substrate addition measured after 30 mins by fluorescence spectrophotometric method
Oryza sativa [19] = experiment: Inhibition of rice alpha-glucosidase at 100 uM using p-nitrophenyl-glycoside as substrate by spectrophotometric method
[20] = biological target: T1, Beta-galactosidase (Bos taurus); experiment: Inhibition of bovine liver beta-galactosidase at 100 uM using p-nitrophenyl-glycoside as substrate by spectrophotometric method
Rattus norvegicus [21] = species on record: Rattus norvegicus; experiment: Inhibition of rat intestinal maltase assessed as D-glucose level at 100 uM using maltose as substrate measured after 10 to 30 mins
[22] = biological target: T4, Uncharacterized protein (Sus scrofa); experiment: Inhibition of porcine kidney trehalase assessed as D-glucose level at 100 uM using maltose as substrate measured after 10 to 30 mins
Prunus dulcis [23] = experiment: Inhibition of almond beta-glucosidase at 100 uM using p-nitrophenyl-glycoside as substrate by spectrophotometric method
Bos taurus [24] = species on record: Bos taurus; experiment: Inhibition of bovine liver beta-glucosidase at 100 uM using p-nitrophenyl-glycoside as substrate by spectrophotometric method
Escherichia coli [25] = experiment: Inhibition of Escherichia coli beta-glucuronidase at 100 uM using p-nitrophenyl-glycoside as substrate by spectrophotometric method
Aspergillus niger [26] = experiment: Inhibition of Aspergillus niger amyloglucosidase assessed as D-glucose level at 100 uM using maltose as substrate measured after 10 to 30 mins
[27] = biological target: T2, Tissue alpha-L-fucosidase (Bos taurus); experiment: Inhibition of bovine kidney alpha-L-fucosidase at 100 uM using p-nitrophenyl-glycoside as substrate by spectrophotometric method

C[C@H](O)[C@H]1[C@@H](O)[C@@H](O)c2nnnn21
70 µM: IC50 [1]

C[C@H](O)[C@@H]1NC[C@H](O)[C@@H]1O
4 µM: IC50 [1]

CCCCCCCC/N=C1/SC[C@@H]2[C@@H](O)[C@H](O)[C@@H](CO)N12
63 µM: IC50 [13]
2.4 µM: IC50 [7]
< 50%: inhibition (Prunus dulcis [2]) | inhibition (Helix pomatia) | inhibition [3] | inhibition (Oryza sativa [4]) | inhibition (Rattus norvegicus [5]) | inhibition [6] | inhibition [8] | inhibition (Penicillium decumbens) | inhibition (Aspergillus niger [9]) | inhibition (Escherichia coli [10]) | inhibition (Escherichia coli [11]) | inhibition [12] | inhibition (Saccharomyces cerevisiae) | inhibition (Coffea)

OC[C@@H]1N[C@@H](CO)[C@H](O)[C@H]1O
< 50%: inhibition (Prunus dulcis [2]) | inhibition (Helix pomatia) | inhibition (Homo sapiens [14]) | inhibition [8] | inhibition (Penicillium decumbens) | inhibition (Bos taurus [15]) | inhibition (Aspergillus niger [9]) | inhibition (Escherichia coli [11]) | inhibition (Saccharomyces cerevisiae) | inhibition (Coffea)

O[C@@H]1[C@@H]2[C@@H](O)CCCN2C[C@@H]1O
0.3 µM: IC50 [1]

CCCC/N=C1/SC[C@H]2[C@H](O)[C@@H](O)[C@H](CO)N12
< 50%: inhibition (Prunus dulcis [2]) | inhibition (Rattus norvegicus [5]) | inhibition [6] | inhibition (Homo sapiens [14]) | inhibition (Bos taurus [15]) | inhibition (Aspergillus niger [9]) | inhibition (Escherichia coli [10]) | inhibition [12]
719 µM: IC50 (Beta-galactosidase)
37 µM: IC50 [17]
339 µM: IC50 [16]

OC[C@H]1[C@H](O)[C@@H](O)[C@@H]2CS/C(=N/CCCCCCCc3ccccc3)N12
< 50%: inhibition (Homo sapiens [18]) | inhibition (Oryza sativa [19]) | inhibition [20] | inhibition (Rattus norvegicus [21]) | inhibition [22] | inhibition (Prunus dulcis [23]) | inhibition (Bos taurus [24]) | inhibition (Escherichia coli [25]) | inhibition (Aspergillus niger [26]) | inhibition [27]
1 µM: IC50 [17]

CCCCCCCC/N=C1/SC[C@H]2[C@H](O)[C@@H](O)[C@H](CO)N12
1.6 µM: IC50 [17]
< 50%: inhibition (Prunus dulcis [2]) | inhibition (Helix pomatia) | inhibition [3] | inhibition (Oryza sativa [4]) | inhibition (Rattus norvegicus [5]) | inhibition [6] | inhibition (Homo sapiens [14]) | inhibition [8] | inhibition (Bos taurus [15]) | inhibition (Aspergillus niger [9]) | inhibition (Escherichia coli [10]) | inhibition (Escherichia coli [11]) | inhibition [12] | inhibition (Saccharomyces cerevisiae) | inhibition (Coffea)
